Measurements reported in PubChem BioAssay AID1963967 (Molecular Pharmacology Branch, DTP, NCI, 2024).

Test system: 855422-203-R-J1-PDC spheroids with HUVEC/MSC, viability
Assay: Anticancer human tumor 855422-203-R-J1-PDC patient-derived bladder carcinoma cell line growth inhibition [PI3K]
Details: for IC50: curve of first compound; for viability, T/C: stronger effect = lower value
Excerpt: Combinatorial screen of targeted agents with the PI3K inhibitors inavolisib, alpelisib, duvelisib, and copanlisib in multi-cell type tumor spheroids
A high-throughput screen of multi-cell type tumor spheroids was designed to identify active combinations of targeted small molecules and PI3K pathway inhibitors. Complex spheroids include a stromal component modeled by human endothelial cells (HUVEC) and fibroblasts modeled by human mesenchymal stem cells (MSCs). The concentration ranges selected for each drug and investigational agent were based upon clinically achievable concentrations if the clinical Cmax of the agent was known.
Compounds. The drugs and investigational agents: inavolisib (NSC800729), alpelisib (NSC765974), duvelisib (NSC772469), copanlisib (NSC816437), ipatasertib (NSC767898), afuresertib (NSC778305), talazoparib (NSC767125), sapanisertib (NSC764658), selumetinib (NSC741078), tovorafenib (DAY101, NSC766906), vemurafenib (NSC761431), ravoxertinib (NSC781343), sotorasib (NSC818433), MRTX1133 (NSC 836407), abemaciclib (NSC 768073), palbociclib (NSC758247), venetoclax (NSC 766270), SY5609 (NSC837396), enzalutamide (NSC755605), and darolutamide (NSC825331), were obtained from the National Cancer Institute (NCI) Developmental Therapeutics Program Chemical Repository. The FDA-approved anticancer drug set is available from the NCI Developmental Therapeutics Program. […] The stock solutions were prepared in dimethyl sulfoxide (DMSO, Sigma-Aldrich, St. Louis, MO, cat. D2650) at 800-fold the tested concentration and stored at -70 degrees C prior to their use. All drugs and investigational agents were tested over a range starting from a high concentration at or near the clinical Cmax and decreasing in half-log increments. If the clinical Cmax for an agent had not been determined, the highest concentration tested was 10 microM.
Cell Culture. All cells were maintained in an incubator at 37 degrees C and 5% CO2 with 95% humidity. The PDC lines were cultured according to standard operating procedures established by the NCI PDMR (https://pdmr.cancer.gov/sops/default.htm). All PDCs were thawed and cultured in Matrigel-coated flasks prepared with a working solution of 1X Ham's F-12 nutrient mix, without supplementation (Invitrogen, Waltham, MA, cat. 11765054), 100 U/mL penicillin-streptomycin (Invitrogen, cat. 15140122), and 2.5% Matrigel (Corning Inc., Corning, NY, cat. 354248) for the first three passages. The 354836-022-R-J1-PDC, 475296-252-R-J1-PDC, and 997726-040-R-J2-PDC lines were cultured in 6A media, which includes advanced DMEM/F-12 (Thermo Fisher Scientific, cat. 12634028), 10 mM HEPES (Thermo Fisher Scientific, cat. 15630080), 1X GlutaMAX supplement (Thermo Fisher Scientific, cat. 35050061), 0.1 mg/mL primocin (InvivoGen, San Diego, CA, cat. ant-pm-2), 10% defined fetal bovine serum, heat inactivated (HyClone Laboratories Inc., Logan, UT, cat. SH30070.03HI), 50% L-WRN conditioned media (ATCC, cat. CRL-3276), 1.25 mM N-Acetyl-L-cysteine (Sigma-Aldrich, cat. A9165), 10 mM nicotinamide (Sigma-Aldrich, cat. N0636), 1X B-27 supplement (Thermo Fisher Scientific, cat. 17504044), 1X N-2 supplement (Thermo Fisher Scientific, cat. 17502048), and 10 microM Y-27632 dihydrochloride (Tocris Bioscience, Bristol, United Kingdom, cat. 1254). The 624824-186-R-J2-PDC line was cultured in 6C/Colon 1B media, which includes all 6A media components plus 50 ng/mL human EGF recombinant protein (Thermo Fisher Scientific, cat. PHG0311). […]

[1] = second compound 0.0316 µM, first compound 0.0316 µM
[2] = second compound 0.0316 µM, first compound 0.1 µM
[3] = second compound 0.1 µM, first compound 0.0316 µM
[4] = second compound 0.1 µM, first compound 0.1 µM
[5] = second compound 0.316 µM, first compound 0.0316 µM
[6] = second compound 0.316 µM, first compound 0.1 µM
[7] = second compound 1 µM, first compound 0.0316 µM
[8] = second compound 1 µM, first compound 0.1 µM
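Also: agents incubated with spheroids for one week before read-out.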
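For viability, T/C in this document: 100% = DMSO vehicle-treated control wells.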

For `C=CC(=O)N1CCN(c2nc(=O)n(-c3c(C)ccnc3C(C)C)c3nc(-c4c(O)cccc4F)c(F)cc23)C(C)C1` (centres undefined) + COc1c(OCCCN2CCOCC2)ccc2c3n(c(=NC(=O)c4cnc(N)nc4)nc12)CCN3, the IC50 (second compound 0.00316 µM) was over 10000 nM, the IC50 (second compound 0.01 µM) was over 10000 nM and the IC50 (second compound 0.0316 µM) was over 10000 nM. For the same molecule, the IC50 (second compound 0.1 µM) was under 31.6 nM, the IC50 (second compound 0.316 µM) was under 31.6 nM and the IC50 (second compound 1 µM) was under 31.6 nM. For the same molecule, the viability, T/C (second compound 0.00316 µM, first compound 0.0316 µM) was 94%, the viability, T/C (second compound 0.00316 µM, first compound 0.1 µM) was 90.8% and the viability, T/C (second compound 0.00316 µM, first compound 0.316 µM) was 116%. It also gave a viability, T/C (second compound 0.00316 µM, first compound 1 µM) of 98.8%, a viability, T/C (second compound 0.00316 µM, first compound 3.16 µM) of 101% and a viability, T/C (second compound 0.00316 µM, first compound 10 µM) of 97%. The viability, T/C (second compound 0.01 µM, first compound 0.0316 µM) was 82%, the viability, T/C (second compound 0.01 µM, first compound 0.1 µM) was 99.4% and the viability, T/C (second compound 0.01 µM, first compound 0.316 µM) was 98%. It also gave a viability, T/C (second compound 0.01 µM, first compound 1 µM) of 89.9%, a viability, T/C (second compound 0.01 µM, first compound 3.16 µM) of 93.6% and a viability, T/C (second compound 0.01 µM, first compound 10 µM) of 103%. It also gave a viability, T/C [1] of 52%, a viability, T/C [2] of 60.2% and a viability, T/C (second compound 0.0316 µM, first compound 0.316 µM) of 66%. For the same molecule, the viability, T/C (second compound 0.0316 µM, first compound 1 µM) was 79.2%, the viability, T/C (second compound 0.0316 µM, first compound 3.16 µM) was 87.2% and the viability, T/C (second compound 0.0316 µM, first compound 10 µM) was 92.6%. For the same molecule, the viability, T/C [3] was 24.5%, the viability, T/C [4] was 34.4% and the viability, T/C (second compound 0.1 µM, first compound 0.316 µM) was 33.5%. The viability, T/C (second compound 0.1 µM, first compound 1 µM) was 42.1%, the viability, T/C (second compound 0.1 µM, first compound 3.16 µM) was 37.2% and the viability, T/C (second compound 0.1 µM, first compound 10 µM) was 34.9%. The viability, T/C [5] was 9.32%, the viability, T/C [6] was 8.33% and the viability, T/C (second compound 0.316 µM, first compound 0.316 µM) was 10.5%. The viability, T/C (second compound 0.316 µM, first compound 1 µM) was 10.1%, the viability, T/C (second compound 0.316 µM, first compound 3.16 µM) was 11.6% and the viability, T/C (second compound 0.316 µM, first compound 10 µM) was 7.98%. The viability, T/C [7] was 3.32%, the viability, T/C [8] was 4.63% and the viability, T/C (second compound 1 µM, first compound 0.316 µM) was 3.78%. For the same molecule, the viability, T/C (second compound 1 µM, first compound 1 µM) was 3.95%, the viability, T/C (second compound 1 µM, first compound 3.16 µM) was 3.61% and the viability, T/C (second compound 1 µM, first compound 10 µM) was 1.93%.

Molecule `CC(=O)c1c(C)c2cnc(Nc3ccc(N4CCNCC4)cn3)nc2n(C2CCCC2)c1=O` + Cc1nc(NC(=O)N2CCCC2C(N)=O)sc1-c1ccnc(C(C)(C)C(F)(F)F)c1 has an IC50 (second compound 0.0316 µM) of over 100 nM, an IC50 (second compound 0.1 µM) of over 100 nM and an IC50 (second compound 0.316 µM) of over 100 nM. For the same molecule, the IC50 (second compound 1 µM) was 51.7 nM, the IC50 (second compound 3.16 µM) was under 0.316 nM and the IC50 (second compound 10 µM) was under 0.316 nM. It also gave a viability, T/C (second compound 0.0316 µM, first compound 0.000316 µM) of 103%, a viability, T/C (second compound 0.0316 µM, first compound 0.001 µM) of 94.1% and a viability, T/C (second compound 0.0316 µM, first compound 0.00316 µM) of 111%. The viability, T/C (second compound 0.0316 µM, first compound 0.01 µM) was 112%, the viability, T/C [1] was 102% and the viability, T/C [2] was 85.3%. It also gave a viability, T/C (second compound 0.1 µM, first compound 0.000316 µM) of 106%, a viability, T/C (second compound 0.1 µM, first compound 0.001 µM) of 97.8% and a viability, T/C (second compound 0.1 µM, first compound 0.00316 µM) of 109%. For the same molecule, the viability, T/C (second compound 0.1 µM, first compound 0.01 µM) was 98.3%, the viability, T/C [3] was 96.3% and the viability, T/C [4] was 76.7%. For the same molecule, the viability, T/C (second compound 0.316 µM, first compound 0.000316 µM) was 91.7%, the viability, T/C (second compound 0.316 µM, first compound 0.001 µM) was 92.5% and the viability, T/C (second compound 0.316 µM, first compound 0.00316 µM) was 97.3%. It also gave a viability, T/C (second compound 0.316 µM, first compound 0.01 µM) of 90.7%, a viability, T/C [5] of 90.9% and a viability, T/C [6] of 58%. It also gave a viability, T/C (second compound 1 µM, first compound 0.000316 µM) of 69.4%, a viability, T/C (second compound 1 µM, first compound 0.001 µM) of 78.2% and a viability, T/C (second compound 1 µM, first compound 0.00316 µM) of 72.8%. The viability, T/C (second compound 1 µM, first compound 0.01 µM) was 75.5%, the viability, T/C [7] was 60.5% and the viability, T/C [8] was 33%. The viability, T/C (second compound 3.16 µM, first compound 0.000316 µM) was 44.1%, the viability, T/C (second compound 3.16 µM, first compound 0.001 µM) was 46.9% and the viability, T/C (second compound 3.16 µM, first compound 0.00316 µM) was 42.7%. The viability, T/C (second compound 3.16 µM, first compound 0.01 µM) was 41.3%, the viability, T/C (second compound 3.16 µM, first compound 0.0316 µM) was 34.5% and the viability, T/C (second compound 3.16 µM, first compound 0.1 µM) was 18.2%. It also gave a viability, T/C (second compound 10 µM, first compound 0.000316 µM) of 25.3%, a viability, T/C (second compound 10 µM, first compound 0.001 µM) of 24% and a viability, T/C (second compound 10 µM, first compound 0.00316 µM) of 24.1%. The viability, T/C (second compound 10 µM, first compound 0.01 µM) was 23%, the viability, T/C (second compound 10 µM, first compound 0.0316 µM) was 19.3% and the viability, T/C (second compound 10 µM, first compound 0.1 µM) was 10.7%.
